Where a name gives a salt, the structure may show the parent alone.

Chain of full-length USP7 (Q93009 whole entry): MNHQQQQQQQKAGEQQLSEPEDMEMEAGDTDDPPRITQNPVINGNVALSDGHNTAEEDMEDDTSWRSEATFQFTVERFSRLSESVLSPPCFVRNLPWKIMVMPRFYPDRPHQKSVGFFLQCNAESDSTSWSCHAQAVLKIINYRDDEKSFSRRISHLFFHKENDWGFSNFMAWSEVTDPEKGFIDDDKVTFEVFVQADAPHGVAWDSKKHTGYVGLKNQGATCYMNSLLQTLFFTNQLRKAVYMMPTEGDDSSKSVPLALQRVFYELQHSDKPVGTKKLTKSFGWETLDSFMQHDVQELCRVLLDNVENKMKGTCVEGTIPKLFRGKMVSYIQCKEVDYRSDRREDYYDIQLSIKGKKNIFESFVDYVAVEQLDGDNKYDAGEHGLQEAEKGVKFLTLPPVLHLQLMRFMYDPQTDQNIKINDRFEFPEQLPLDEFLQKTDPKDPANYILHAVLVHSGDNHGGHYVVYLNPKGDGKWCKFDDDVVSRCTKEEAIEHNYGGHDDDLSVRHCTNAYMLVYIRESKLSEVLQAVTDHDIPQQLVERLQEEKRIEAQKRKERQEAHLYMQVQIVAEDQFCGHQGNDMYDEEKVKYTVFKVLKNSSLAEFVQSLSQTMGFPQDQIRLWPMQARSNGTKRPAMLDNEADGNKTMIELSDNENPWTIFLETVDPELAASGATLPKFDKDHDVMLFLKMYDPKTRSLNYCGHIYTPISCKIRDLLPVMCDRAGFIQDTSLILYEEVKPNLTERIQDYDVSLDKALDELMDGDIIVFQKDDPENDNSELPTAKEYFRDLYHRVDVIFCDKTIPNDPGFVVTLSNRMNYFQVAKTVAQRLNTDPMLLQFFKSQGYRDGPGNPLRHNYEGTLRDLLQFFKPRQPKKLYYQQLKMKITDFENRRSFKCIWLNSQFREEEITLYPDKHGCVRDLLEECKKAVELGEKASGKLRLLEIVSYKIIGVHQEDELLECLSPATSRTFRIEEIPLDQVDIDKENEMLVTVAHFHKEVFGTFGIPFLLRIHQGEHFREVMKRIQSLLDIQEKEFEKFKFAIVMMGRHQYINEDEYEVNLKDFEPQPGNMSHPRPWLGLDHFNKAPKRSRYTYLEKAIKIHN

This test deals with full-length USP7 (Homo sapiens (Human), UniProt Q93009). Description: Enzymatic assay to determine IC50 of USP7 inhibitors (Ubiquitin-Rhodamine 110 cleavage). It is filed as biochemical. The settings on record: 0.5 nM USP7, 0.5 μM Ubiquitin-Rhodamine 110, 45 min at 37° C. Here is the method:
For the inhibitors disclosed herein, their potency was measured using the following method.
A 45 μl reaction volume containing full-length USP7 (0.5 nM) in 50 mM HEPES pH 7.5, 150 mM NaCl, 1 mM DTT, 1 mg/ml BSA and 0.05% Tween20 was assembled in wells of 96 well half area black flat bottom plates. Test compounds were first dissolved to 25 mM stocks in DMSO and subsequently introduced to enzyme 15 min after USP7 incubation with DTT at room temperature. The enzymatic reaction was started by adding 0.5 μM Ubiquitin-Rhodamine 110 (final concentration) and allowed to proceed for 45 min at 37° C., 250 RPM shaking before Rhodamine fluorescence (485 nm excitation/520 nm emission) was measured using Tecan Spark M10 plate reader.
Broadly, the IC50 is the concentration that gives 50% inhibition. For “3-((7-(3-(3,3-difluoroazetidine-1-carbonyl)-4,6-dimethylpyridin-2-yl)thieno[3,2-b]pyridin-2-yl)methyl)-6,6-dimethyl-3-azabicyclo[3.1.0]hexane-2,4-dione hydrochloride [Example 85]”, the IC50 fell in the range of 1000 to 10000 nM.
In turn, “6,6-dimethyl-3-((7-(2-methyl-3-(pyrrolidin-3-ylamino)-6-(trifluoromethyl)pyridin-4-yl)thieno[3,2-b]pyridin-2-yl)methyl)-3-azabicyclo[3.1.0]hexane-2,4-dione 2,2,2-trifluoroacetate [Example 25]” gave a half-inhibitory concentration (IC50) of less than 500 nM.
Molecule “6,6-dimethyl-3-((7-(2-methyl-3-(pyrrolidin-3-ylmethyl)-6-(trifluoromethyl)pyridin-4-yl)thieno[3,2-b]pyridin-2-yl)methyl)-3-azabicyclo[3.1.0]hexane-2,4-dione 2,2,2-trifluoroacetate [Example 88]” returned an IC50 of less than 500 nM.
As to “6-(2-((6,6-dimethyl-2,4-dioxo-3-azabicyclo[3.1.0]hexan-3-yl)methyl)thieno[3,2-b]pyridin-7-yl)-4-methyl-5-((S)-2-methylpiperazine-1-carbonyl)picolinonitrile hydrochloride [Example 47]”, the IC50 is less than 500 nM.
Turning to `Cc1cc(Cl)nc(-c2ccnc3cc(CN4C(=O)C5C(C4=O)C5(C)C)sc23)c1OC1CCNC1` (racemic) [Example 2, 3-((7-(6-chloro-4-methyl-3-(pyrrolidin-3-yloxy)pyridin-2-yl)thieno[3,2-b]pyridin-2-yl)methyl)-6,6-dimethyl-3-azabicyclo[3.1.0]hexane-2,4-dione hydrochloride], the half-maximal inhibitory concentration (IC50) was less than 500 nM.
For `Cc1cc(Cl)nc(-c2ccnc3cc(CN4C(=O)C5C(C4=O)C5(C)C)sc23)c1OC1CCCNC1` (racemic) [Example 3, 3-((7-(6-chloro-4-methyl-3-(piperidin-3-yloxy)pyridin-2-yl)thieno[3,2-b]pyridin-2-yl)methyl)-6,6-dimethyl-3-azabicyclo[3.1.0]hexane-2,4-dione hydrochloride], the IC50 is less than 500 nM.
Molecule `Cc1nc(C(F)(F)F)cc(-c2ccnc3cc(CN4C(=O)C5C(C4=O)C5(C)C)sc23)c1OC1CCNC1` (racemic) [Example 21, 6,6-dimethyl-3-((7-(2-methyl-3-(pyrrolidin-3-yloxy)-6-(trifluoromethyl)pyridin-4-yl)thieno[3,2-b]pyridin-2-yl)methyl)-3-azabicyclo[3.1.0]hexane-2,4-dione 2,2,2-trifluoroacetate] gave an IC50 of less than 500 nM.
With `Cc1cc(C(F)(F)F)nc(-c2ccnc3cc(CN4C(=O)C5C(C4=O)C5(C)C)sc23)c1CC1CNCCN1` (racemic) [Example 35, 6,6-dimethyl-3-((7-(4-methyl-3-(piperazin-2-ylmethyl)-6-(trifluoromethyl)pyridin-2-yl)thieno[3,2-b]pyridin-2-yl)methyl)-3-azabicyclo[3.1.0]hexane-2,4-dione hydrochloride], the IC50 was less than 500 nM.
`Cc1nc(C(F)(F)F)cc(-c2ccnc3cc(CN4C(=O)C5C(C4=O)C5(C)C)sc23)c1NC(=O)C1CCNC1` (racemic) [Example 64, N-(4-(2-((6,6-dimethyl-2,4-dioxo-3-azabicyclo[3.1.0]hexan-3-yl)methyl)thieno[3,2-b]pyridin-7-yl)-2-methyl-6-(trifluoromethyl)pyridin-3-yl)pyrrolidine-3-carboxamide 2,2,2-trifluoroacetate] showed an IC50 of 1000 to 10000 nM.
In turn, `Cc1nc(C(F)(F)F)cc(-c2ccnc3cc(CN4C(=O)C5C(C4=O)C5(C)C)sc23)c1NC(=O)C1CCN(C(=O)C(F)(F)F)C1` (racemic) [Example 65, N-(4-(2-((6,6-dimethyl-2,4-dioxo-3-azabicyclo[3.1.0]hexan-3-yl)methyl)thieno[3,2-b]pyridin-7-yl)-2-methyl-6-(trifluoromethyl)pyridin-3-yl)-1-(2,2,2-trifluoroacetyl)pyrrolidine-3-carboxamide 2,2,2-trifluoroacetate] registered an IC50 of more than 10000 nM.
Turning to `Cc1cc(C(F)(F)F)nc(-c2ccnc3cc(CN4C(=O)C5C(C4=O)C5(C)C)sc23)c1C(=O)N1CCC2CNCC21` (racemic) [Example 72, 6,6-dimethyl-3-((7-(4-methyl-3-(octahydropyrrolo[3,4-b]pyrrole-1-carbonyl)-6-(trifluoromethyl)pyridin-2-yl)thieno[3,2-b]pyridin-2-yl)methyl)-3-azabicyclo[3.1.0]hexane-2,4-dione dihydrochloride], the IC50 was less than 500 nM.
With `Cc1nc(C(F)(F)F)cc(-c2ccnc3cc(CN4C(=O)C5C(C4=O)C5(C)C)sc23)c1CC1CNCCO1` (racemic) [Example 91, 6,6-dimethyl-3-((7-(2-methyl-3-(morpholin-2-ylmethyl)-6-(trifluoromethyl)pyridin-4-yl)thieno[3,2-b]pyridin-2-yl)methyl)-3-azabicyclo[3.1.0]hexane-2,4-dione 2,2,2-trifluoroacetate], the IC50 is less than 500 nM.
As for `Cc1cc(C(F)(F)F)nc(-c2ccnc3cc(CN4C(=O)C5C(C4=O)C5(C)C)sc23)c1CC1CNCCO1` (racemic) [Example 92, 6,6-dimethyl-3-((7-(4-methyl-3-(morpholin-2-ylmethyl)-6-(trifluoromethyl)pyridin-2-yl)thieno[3,2-b]pyridin-2-yl)methyl)-3-azabicyclo[3.1.0]hexane-2,4-dione 2,2,2-trifluoroacetate], the figure is less than 500 nM; as for `Cc1cc(C)c(NC2CCNC2)c(-c2ccnc3cc(CN4C(=O)C5C(C4=O)C5(C)C)sc23)n1` (racemic) [Example 124, 3-((7-(4,6-dimethyl-3-(pyrrolidin-3-ylamino)pyridin-2-yl)thieno[3,2-b]pyridin-2-yl)methyl)-6,6-dimethyl-3-azabicyclo[3.1.0]hexane-2,4-dione 2,2,2-trifluoroacetate], less than 500 nM; as for `Cc1nc(Cl)cc(-c2ccnc3cc(CN4C(=O)C5C(C4=O)C5(C)C)sc23)c1NC1CCNC1` (racemic) [Example 125, 3-((7-(6-chloro-2-methyl-3-(pyrrolidin-3-ylamino)pyridin-4-yl)thieno[3,2-b]pyridin-2-yl)methyl)-6,6-dimethyl-3-azabicyclo[3.1.0]hexane-2,4-dione 2,2,2-trifluoroacetate], less than 500 nM.
Molecule `Cc1cc(Cl)nc(-c2ccnc3cc(CN4C(=O)C5C(C4=O)C5(C)C)sc23)c1NC1CCCNC1` (racemic) [Example 129, 3-((7-(6-chloro-4-methyl-3-(piperidin-3-ylamino)pyridin-2-yl)thieno[3,2-b]pyridin-2-yl)methyl)-6,6-dimethyl-3-azabicyclo[3.1.0]hexane-2,4-dione tetrahydrochloride] returned an IC50 of less than 500 nM.
For `Cc1cc(C(F)(F)F)nc(-c2ccnc3cc(CN4C(=O)C5C(C4=O)C5(C)C)sc23)c1C(=O)N1CCC(C)(N)C1` (racemic) [Example 137, 3-((7-(3-(3-amino-3-methylpyrrolidine-1-carbonyl)-4-methyl-6-(trifluoromethyl)pyridin-2-yl)thieno[3,2-b]pyridin-2-yl)methyl)-6,6-dimethyl-3-azabicyclo[3.1.0]hexane-2,4-dione trihydrochloride], the IC50 lay in the range of 500 to 1000 nM.
`Cc1cc(C(F)(F)F)nc(-c2ccnc3cc(CN4C(=O)C5C(C4=O)C5(C)C)sc23)c1C(=O)N1CCC(CN)C1` (racemic) [Example 139, 3-((7-(3-(3-(aminomethyl)pyrrolidine-1-carbonyl)-4-methyl-6-(trifluoromethyl)pyridin-2-yl)thieno[3,2-b]pyridin-2-yl)methyl)-6,6-dimethyl-3-azabicyclo[3.1.0]hexane-2,4-dione trihydrochloride] came in with an IC50 of less than 500 nM.
Molecule `Cc1cc(C(F)(F)F)nc(-c2ccnc3cc(CN4C(=O)C5C(C4=O)C5(C)C)sc23)c1C(=O)N1CCC(CNC(C)C)C1` (racemic) [Example 140, 3-((7-(3-(3-((isopropylamino)methyl)pyrrolidine-1-carbonyl)-4-methyl-6-(trifluoromethyl)pyridin-2-yl)thieno[3,2-b]pyridin-2-yl)methyl)-6,6-dimethyl-3-azabicyclo[3.1.0]hexane-2,4-dione trihydrochloride] gave a half-inhibitory concentration (IC50) of less than 500 nM.
`Cc1cc(C(F)(F)F)nc(-c2ccnc3cc(CN4C(=O)N(C)C5(CC5)C4=O)sc23)c1NC1CCNC1` (racemic) [Example 145, 4-methyl-6-((7-(4-methyl-3-(pyrrolidin-3-ylamino)-6-(trifluoromethyl)pyridin-2-yl)thieno[3,2-b]pyridin-2-yl)methyl)-4,6-diazaspiro[2.4]heptane-5,7-dione dihydrochloride] had an IC50 of less than 500 nM.
`Cc1cc(Cl)nc(-c2ccnc3cc(CN4C(=O)C5C(C4=O)C5(C)C)sc23)c1O[C@H]1CCCNC1` (single isomer, unassigned) [Example 4, hydrochloride] gave an IC50 of less than 500 nM.
In the case of `Cc1ccnc(-c2ccnc3cc(CN4C(=O)C5C(C4=O)C5(C)C)sc23)c1C(O)[C@@H]1CNCCO1` (single isomer, unassigned) [Example 100, 2,2,2-trifluoroacetate], the IC50 fell in the range of 1000 to 10000 nM.
Regarding `Cc1cc(C#N)nc(-c2ccnc3cc(CN4C(=O)C5C(C4=O)C5(C)C)sc23)c1OC1CCCNC1` (centres unmarked) [Example 1, 6-(2-((6,6-dimethyl-2,4-dioxo-3-azabicyclo[3.1.0]hexan-3-yl)methyl)thieno[3,2-b]pyridin-7-yl)-4-methyl-5-(piperidin-3-yloxy)picolinonitrile 2,2,2-trifluoroacetate], the IC50 is less than 500 nM.
